Measured values reported in patent US4132778A, “Antibiotic A-32887” (Eli Lilly and Company, priority 1977, dated 1979).

Tests used:
[1] = system: Bacteriodes melaninogenicus 2736; assay: Standard agar-dilution assay, anaerobic bacteria, Table IX; format: cell-based; settings: 24-hour incubation
[2] = system: Fusobacterium symbiosum; assay: as above; format: cell-based; settings: 24-hour incubation
[3] = system: Clostridium perfringens; format: cell-based; settings: 24-hour incubation
[4] = system: acute swine dysentery; assay: Swine dysentery test in infected pigs (Table XVII); format: in vivo; settings: 100 g/ton in feed
Description: In another aspect the A-32887 compounds are useful in the prevention and control of swine dysentery. A preferred method of administration to swine is by incorporation of an appropriate amount of an A-32887 compound into the feed ration. […] In this test, groups of four pigs were challenged orally with 5.0 ml of a colon-content/tissue suspension prepared from pigs suffering from acute swine dysentery. Treated pigs were challenged 24 hours after initiating feed treatment. The test was carried out over a period of 26 days, observing pigs daily, and weighing them weekly and on day 26.
*Fecal material for each group was rated daily with 0= normal, 1= slight
blood or mucus, 2= moderate blood or mucus, 3= marked blood or mucus.
Index is the total score per treatment for 25 days.

[5] = system: Southern armyworm; assay: Insecticidal activity; format: in vivo; settings: 1000 ppm
Description: (§1) In another aspect, the A-32887 compounds are useful as insecticides. For example, A-32887 (Na-K salt) is active against insects such as Mexican bean beetle, Southern armyworm and housefly when applied at a rate of 1000 ppm.

[6] = system: housefly; assay: Insecticidal activity; format: in vivo; settings: 1000 ppm
Description: as §1

[7] = system: Mexican bean beetle; assay: Insecticidal activity; format: in vivo; settings: 1000 ppm
Description: as §1

[8] = system: E. tenella AND E. acervulina; assay: Anticoccidial feeding test in chicks, E. tenella and E. acervulina (Table XII); format: in vivo; parameters: Average Lesion Score, Intestinal / Average Lesion Score, Cecal: scale not given here; settings: for Percent Mortality: due to coccidiosis; for Percent Weight Gain: normal controls = 100%
Description: ^1 6 replicates; 5 birds each
^2 Infection inoculum 48 hours post-medication onset

[9] = system: Peptococcus prevoti; assay: Standard agar-dilution assay, anaerobic bacteria, Table IX; format: cell-based; settings: 24-hour incubation
[10] = system: Peptostreptococcus anaerobius; assay: as above; format: cell-based; settings: 24-hour incubation
[11] = system: coccidia; assay: Feeding experiments in chicks challenged with coccidia; format: in vivo, Eimeria species; chicks; settings: levels as low as 40 ppm in feed of young chickens
[12] = system: Propionibacterium acnes; assay: Standard agar-dilution assay, anaerobic bacteria, Table IX; format: cell-based; settings: 24-hour incubation

Compound: CO[C@H]1CC[C@H](OC2[C@@H](C)[C@@](C)(O)O[C@H]([C@H]3CC[C@H]([C@@H]4CC[C@H]([C@@]5(C)O[C@]6(O[C@H](C[C@@H]7O[C@](O)([C@@H](O)C(=O)O)[C@@H](C)[C@H](OC)[C@@]7(C)OC)C[C@@H](OC)[C@H]6C)[C@H](C)[C@H]5OC)O4)O3)[C@H]2C)O[C@@H]1C.[K+].[Na+] (some centres unmarked) [A-32887 (Na-K salt)]
- MIC [1]: 2 µg/mL
- MIC [2]: 32 µg/mL
- MIC [3]: ≤ 0.5 µg/mL
- No. Died per No. in Group [4]: 0/4
- No. with Colon Lesions/No. in Group [4]: 2/4
- Diarrhea Index ([4]; total score per treatment for 25 days): 22
- insecticidal activity [5]: active
- insecticidal activity [6]: active
- insecticidal activity [7]: active
- Average Lesion Score, Cecal ([8]; 62 ppm): 0.1
- Average Lesion Score, Intestinal ([8]; 62 ppm): 0.9
- Percent Mortality ([8]; 62 ppm): 0%
- Percent Weight Gain ([8]; 62 ppm): 97%
- Average Lesion Score, Cecal ([8]; 77 ppm): 0
- Average Lesion Score, Intestinal ([8]; 77 ppm): 0.7
- Percent Mortality ([8]; 77 ppm): 0%
- Percent Weight Gain ([8]; 77 ppm): 90%
- Average Lesion Score, Cecal ([8]; 100 ppm): 0.1
- Average Lesion Score, Intestinal ([8]; 100 ppm): 0.6
- Percent Mortality ([8]; 100 ppm): 0%
- Percent Weight Gain ([8]; 100 ppm): 85%
- Average Lesion Score, Cecal ([8]; 121 ppm): 0
- Average Lesion Score, Intestinal ([8]; 121 ppm): 0.3
- Percent Mortality ([8]; 121 ppm): 0%
- Percent Weight Gain ([8]; 121 ppm): 73%
- MIC [9]: ≤ 0.5 µg/mL
- MIC [10]: ≤ 0.5 µg/mL
- mortality and number of lesions in challenged chicks [11]: decreases mortality and the number of lesions
- MIC [12]: ≤ 0.5 µg/mL
